The target of this test is T1, soybean lipoxygenase (LOX) (Glycine max, UniProt P08170).
T1 construct: gene LOX1.1
T1 sequence (P08170 1-839): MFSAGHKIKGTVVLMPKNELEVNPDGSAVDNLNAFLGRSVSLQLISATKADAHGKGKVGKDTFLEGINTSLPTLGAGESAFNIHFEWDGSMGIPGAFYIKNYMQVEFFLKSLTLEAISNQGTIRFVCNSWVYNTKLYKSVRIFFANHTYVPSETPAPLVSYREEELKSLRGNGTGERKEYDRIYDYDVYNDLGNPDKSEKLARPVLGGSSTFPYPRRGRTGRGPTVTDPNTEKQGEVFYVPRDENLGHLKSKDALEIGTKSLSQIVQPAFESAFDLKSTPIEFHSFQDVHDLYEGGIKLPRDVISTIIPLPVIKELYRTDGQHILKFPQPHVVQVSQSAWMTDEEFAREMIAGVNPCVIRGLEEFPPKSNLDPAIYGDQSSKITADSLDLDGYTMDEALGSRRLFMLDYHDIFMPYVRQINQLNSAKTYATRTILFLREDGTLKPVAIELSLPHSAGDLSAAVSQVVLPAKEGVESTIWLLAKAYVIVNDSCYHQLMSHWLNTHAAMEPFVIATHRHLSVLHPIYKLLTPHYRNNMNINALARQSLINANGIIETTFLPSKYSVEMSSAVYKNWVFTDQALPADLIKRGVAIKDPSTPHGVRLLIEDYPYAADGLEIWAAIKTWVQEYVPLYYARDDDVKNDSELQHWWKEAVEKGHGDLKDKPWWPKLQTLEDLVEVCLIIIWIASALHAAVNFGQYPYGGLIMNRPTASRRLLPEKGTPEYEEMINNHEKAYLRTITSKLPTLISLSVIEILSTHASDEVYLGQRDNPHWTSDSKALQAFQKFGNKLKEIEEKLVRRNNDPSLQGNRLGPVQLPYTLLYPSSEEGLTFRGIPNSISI
Briefly: UV absorbance at […] nm, conversion of sodium linoleate to 13-hydroperoxylinoleic acid, Tris pH […]. It counts as biochemical.

Each structure is given as a SMILES string. Read-outs that look alike come from different tables or passages of the source.

For the molecule `C#C[C@]1(O)CC[C@H]2[C@@H]3CCC4=CC(=NO)CC[C@]4(C)[C@H]3CC[C@@]21C` (mixture of isomers) [MC2], the IC50 worked out at 97 ± 1.5 µM.

For the molecule `C#C[C@]1(O)CC[C@H]2[C@@H]3CCC4=CC(=[N+](C)[O-])CC[C@]4(C)[C@H]3CC[C@@]21C` [MC3], it took 62 ± 0.8 µM to reach half-maximal inhibition (IC50).

Regarding `CC#C[C@]1(O)CC[C@H]2[C@@H]3CCC4=CC(=NO)CCC4=C3[C@@H](c3ccc(N(C)C)cc3)C[C@@]21C` [MC4], the IC50 (read-out: LOX Inhibition (% or IC50)) amounted to 3.8 ± 0.3 µM.

A word on the IC50: it is the concentration at which inhibition is half-maximal.

The values are drawn from PMC12692713, “Neuroprotective and Antioxidant Properties of Different Novel Steroid-Derived Nitrones and Oximes on Cerebral Ischemia In Vitro” (International Journal of Molecular Sciences, 2025).
